{"source": "patent US10077284B2", "about": "“UBA5 inhibitors” (THE GOVERNING COUNCIL OF THE UNIVERSITY OF TORONTO, priority 2014, dated 2018)", "key": {"UBA5": {"target": "UBA5 (Homo sapiens, UniProt Q9GZZ9)", "sequence (Q9GZZ9 whole entry)": "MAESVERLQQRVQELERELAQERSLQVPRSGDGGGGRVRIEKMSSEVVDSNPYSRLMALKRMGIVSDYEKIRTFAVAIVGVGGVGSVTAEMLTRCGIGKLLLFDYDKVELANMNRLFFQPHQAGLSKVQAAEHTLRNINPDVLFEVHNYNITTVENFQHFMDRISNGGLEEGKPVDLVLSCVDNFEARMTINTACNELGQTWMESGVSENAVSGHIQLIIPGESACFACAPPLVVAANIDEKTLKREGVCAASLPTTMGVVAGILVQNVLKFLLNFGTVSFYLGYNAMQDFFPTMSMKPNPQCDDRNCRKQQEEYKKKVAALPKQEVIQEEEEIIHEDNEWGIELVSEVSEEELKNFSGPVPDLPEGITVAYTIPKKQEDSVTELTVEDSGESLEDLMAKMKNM", "settings": "in the presence of 1.5.Zn (5 μM)", "procedure": "Initial rates were recorded over 30 second time intervals from 0 to 2.5 min (normal kinetics) or 0 to 5 min (inhibition kinetics). Reactions were initiated by the addition of ATP and stopped using 4× Laemmli sample buffer (BioRad). The generated protein conjugates were separated on a 10% […] SDS-polyacrylamide gel (4-15% gels were used for the UAE transthiolaton assay), followed by Western blot analysis, with the exception of GST-UBA5 where protein bands were detected using Coomassie™ Brilliant Blue R-250 staining or Stain-Free gel imaging for the enzymatic assays (Bio-Rad). Transfers for the UAE and NAE immunoblots were performed using nitrocellulose membranes and blocking and blotting was performed as described above with cellular protein extracts. The His6-tagged Ub-UBCH6 complex was detected using an anti-His mouse monoclonal primary antibody (1:500, abcam). A rabbit anti-NEDD8 polyclonal primary antibody (1:500, BostonBiochem) was used for the detection of the E2-NEDD8 complexes. […] Inhibitory data was fit to a dose-response curve (Y=Bottom+(Top−Bottom)/(1+10^(X-Log IC50))) using GraphPad Prism 6.\nConcentrations of UBA5 (1 μM), UFM1 (10 μM), and UFC1 (10 μM) were held constant, while the concentration of ATP was varied from 0 to 1 mM. […] Protein concentrations were held constant as in (A), and concentrations of ATP were varied from 0 to 1 mM (n=3). […]"}, "[1]": {"target": "T1, NEDD8 activating enzyme (NAE) (Homo sapiens, UniProt Q8TBC4)", "T1 construct": "purchased Boston Biochem", "T1 sequence (Q8TBC4 1-463)": "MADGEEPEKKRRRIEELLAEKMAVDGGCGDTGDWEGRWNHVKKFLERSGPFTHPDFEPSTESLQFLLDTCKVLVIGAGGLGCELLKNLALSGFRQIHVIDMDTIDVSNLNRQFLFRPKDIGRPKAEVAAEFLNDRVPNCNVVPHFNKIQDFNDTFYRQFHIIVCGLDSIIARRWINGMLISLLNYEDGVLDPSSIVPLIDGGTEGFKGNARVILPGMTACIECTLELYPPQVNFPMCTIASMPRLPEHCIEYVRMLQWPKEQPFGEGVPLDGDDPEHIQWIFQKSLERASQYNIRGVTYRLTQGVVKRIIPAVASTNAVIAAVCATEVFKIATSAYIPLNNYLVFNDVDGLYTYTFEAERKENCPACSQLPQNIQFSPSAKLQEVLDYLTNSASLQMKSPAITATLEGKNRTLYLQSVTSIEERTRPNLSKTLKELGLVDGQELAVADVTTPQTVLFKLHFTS", "T1 sequence (Q13564 1-534 partner)": "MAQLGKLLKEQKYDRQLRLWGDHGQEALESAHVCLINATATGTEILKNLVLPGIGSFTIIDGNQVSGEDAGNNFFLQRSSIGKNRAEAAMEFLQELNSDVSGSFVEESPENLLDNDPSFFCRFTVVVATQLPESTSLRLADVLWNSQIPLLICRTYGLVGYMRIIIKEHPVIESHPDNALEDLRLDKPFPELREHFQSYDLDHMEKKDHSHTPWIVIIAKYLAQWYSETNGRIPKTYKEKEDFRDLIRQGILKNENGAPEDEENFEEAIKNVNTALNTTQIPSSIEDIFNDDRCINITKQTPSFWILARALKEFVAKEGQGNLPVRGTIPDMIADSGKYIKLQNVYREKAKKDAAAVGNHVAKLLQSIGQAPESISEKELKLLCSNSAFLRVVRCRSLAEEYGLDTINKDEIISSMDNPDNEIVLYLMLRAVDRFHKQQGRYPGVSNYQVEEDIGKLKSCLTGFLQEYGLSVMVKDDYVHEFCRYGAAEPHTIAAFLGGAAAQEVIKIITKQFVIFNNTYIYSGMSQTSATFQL", "assay": "NAE transthiolation assay (NEDD8 transfer to UbcH12)", "assay_type": "biochemical", "quoted_text": "Initial rates were recorded over 30 second time intervals from 0 to 2.5 min (normal kinetics) or 0 to 5 min (inhibition kinetics). Reactions were initiated by the addition of ATP and stopped using 4× Laemmli sample buffer (BioRad). The generated protein conjugates were separated on a 10% non-degenerating SDS-polyacrylamide gel (4-15% gels were used for the UAE transthiolaton assay), followed by Western blot analysis, with the exception of GST-UBA5 where protein bands were detected using Coomassie™ Brilliant Blue R-250 staining or Stain-Free gel imaging for the enzymatic assays (Bio-Rad). Transfers for the UAE and NAE immunoblots were performed using nitrocellulose membranes and blocking and blotting was performed as described above with cellular protein extracts. The His6-tagged Ub-UBCH6 complex was detected using an anti-His mouse monoclonal primary antibody (1:500, abcam). A rabbit anti-NEDD8 polyclonal primary antibody (1:500, BostonBiochem) was used for the detection of the E2-NEDD8 complexes. […] Inhibitory data was fit to a dose-response curve (Y=Bottom+(Top−Bottom)/(1+10^(X-Log IC50))) using GraphPad Prism 6."}}, "note": "“And” between values parts separate entries of the source, which are not always exact repeats. Identical values can stand only once.", "data": [{"smiles": "Nc1ncnc2c1ncn2[C@@H]1O[C@H](C(=O)NCCCCCC(=O)N2CCNCCNCCNCC2)[C@@H](O)[C@H]1O.O=S(=O)([O-])C(F)(F)F.O=S(=O)([O-])C(F)(F)F.[Zn+2]", "note": "[Compound 1.5.Zn, (2S,3S,4R,5R)—N-(6-(1,4,7,10-tetraazacyclododecan-1-yl)-6-oxohexyl)-5-(6-amino-9H-purin-9-yl)-3,4-dihydroxytetrahydrofuran-2-carboxamide zinc trifluoromethanesulfonate]", "values": [{"measurement": "VMAX", "setting": "UBA5", "result": "0.988 ± 0.137", "unit": "pmol/min"}, {"measurement": "kCAT", "setting": "UBA5", "result": "0.00188 ± 0.000267", "unit": "s⁻¹"}, {"measurement": "IC50", "setting": "[1]; n=3-6", "result": "103 µM and 66.8 µM"}, {"measurement": "selectivity for UBA5 over NAE", "setting": "[1]; ratio of IC50", "result": "> 20 fold and ~20 fold"}]}]}
